We go through four compounds from ChEMBL document CHEMBL2321665, “Treatment of Obesity and Related Disorders with Acetyl-CoA Carboxylase Inhibitors” (ACS Med Chem Lett, 2013).

Each structure is given as a SMILES string.

As a reminder, the IC50 is the concentration that inhibits the measured activity by half.

One experiment deals with Acetyl-CoA carboxylase 2 (Homo sapiens, UniProt O00763). The experiment in a line: Inhibition of human recombinant ACC2.
In the next experiment the target is Acetyl-CoA carboxylase 1 (Homo sapiens, UniProt Q13085). The experiment in a line: Inhibition of human recombinant ACC1.

Sequence of Acetyl-CoA carboxylase 2 (O00763 whole entry): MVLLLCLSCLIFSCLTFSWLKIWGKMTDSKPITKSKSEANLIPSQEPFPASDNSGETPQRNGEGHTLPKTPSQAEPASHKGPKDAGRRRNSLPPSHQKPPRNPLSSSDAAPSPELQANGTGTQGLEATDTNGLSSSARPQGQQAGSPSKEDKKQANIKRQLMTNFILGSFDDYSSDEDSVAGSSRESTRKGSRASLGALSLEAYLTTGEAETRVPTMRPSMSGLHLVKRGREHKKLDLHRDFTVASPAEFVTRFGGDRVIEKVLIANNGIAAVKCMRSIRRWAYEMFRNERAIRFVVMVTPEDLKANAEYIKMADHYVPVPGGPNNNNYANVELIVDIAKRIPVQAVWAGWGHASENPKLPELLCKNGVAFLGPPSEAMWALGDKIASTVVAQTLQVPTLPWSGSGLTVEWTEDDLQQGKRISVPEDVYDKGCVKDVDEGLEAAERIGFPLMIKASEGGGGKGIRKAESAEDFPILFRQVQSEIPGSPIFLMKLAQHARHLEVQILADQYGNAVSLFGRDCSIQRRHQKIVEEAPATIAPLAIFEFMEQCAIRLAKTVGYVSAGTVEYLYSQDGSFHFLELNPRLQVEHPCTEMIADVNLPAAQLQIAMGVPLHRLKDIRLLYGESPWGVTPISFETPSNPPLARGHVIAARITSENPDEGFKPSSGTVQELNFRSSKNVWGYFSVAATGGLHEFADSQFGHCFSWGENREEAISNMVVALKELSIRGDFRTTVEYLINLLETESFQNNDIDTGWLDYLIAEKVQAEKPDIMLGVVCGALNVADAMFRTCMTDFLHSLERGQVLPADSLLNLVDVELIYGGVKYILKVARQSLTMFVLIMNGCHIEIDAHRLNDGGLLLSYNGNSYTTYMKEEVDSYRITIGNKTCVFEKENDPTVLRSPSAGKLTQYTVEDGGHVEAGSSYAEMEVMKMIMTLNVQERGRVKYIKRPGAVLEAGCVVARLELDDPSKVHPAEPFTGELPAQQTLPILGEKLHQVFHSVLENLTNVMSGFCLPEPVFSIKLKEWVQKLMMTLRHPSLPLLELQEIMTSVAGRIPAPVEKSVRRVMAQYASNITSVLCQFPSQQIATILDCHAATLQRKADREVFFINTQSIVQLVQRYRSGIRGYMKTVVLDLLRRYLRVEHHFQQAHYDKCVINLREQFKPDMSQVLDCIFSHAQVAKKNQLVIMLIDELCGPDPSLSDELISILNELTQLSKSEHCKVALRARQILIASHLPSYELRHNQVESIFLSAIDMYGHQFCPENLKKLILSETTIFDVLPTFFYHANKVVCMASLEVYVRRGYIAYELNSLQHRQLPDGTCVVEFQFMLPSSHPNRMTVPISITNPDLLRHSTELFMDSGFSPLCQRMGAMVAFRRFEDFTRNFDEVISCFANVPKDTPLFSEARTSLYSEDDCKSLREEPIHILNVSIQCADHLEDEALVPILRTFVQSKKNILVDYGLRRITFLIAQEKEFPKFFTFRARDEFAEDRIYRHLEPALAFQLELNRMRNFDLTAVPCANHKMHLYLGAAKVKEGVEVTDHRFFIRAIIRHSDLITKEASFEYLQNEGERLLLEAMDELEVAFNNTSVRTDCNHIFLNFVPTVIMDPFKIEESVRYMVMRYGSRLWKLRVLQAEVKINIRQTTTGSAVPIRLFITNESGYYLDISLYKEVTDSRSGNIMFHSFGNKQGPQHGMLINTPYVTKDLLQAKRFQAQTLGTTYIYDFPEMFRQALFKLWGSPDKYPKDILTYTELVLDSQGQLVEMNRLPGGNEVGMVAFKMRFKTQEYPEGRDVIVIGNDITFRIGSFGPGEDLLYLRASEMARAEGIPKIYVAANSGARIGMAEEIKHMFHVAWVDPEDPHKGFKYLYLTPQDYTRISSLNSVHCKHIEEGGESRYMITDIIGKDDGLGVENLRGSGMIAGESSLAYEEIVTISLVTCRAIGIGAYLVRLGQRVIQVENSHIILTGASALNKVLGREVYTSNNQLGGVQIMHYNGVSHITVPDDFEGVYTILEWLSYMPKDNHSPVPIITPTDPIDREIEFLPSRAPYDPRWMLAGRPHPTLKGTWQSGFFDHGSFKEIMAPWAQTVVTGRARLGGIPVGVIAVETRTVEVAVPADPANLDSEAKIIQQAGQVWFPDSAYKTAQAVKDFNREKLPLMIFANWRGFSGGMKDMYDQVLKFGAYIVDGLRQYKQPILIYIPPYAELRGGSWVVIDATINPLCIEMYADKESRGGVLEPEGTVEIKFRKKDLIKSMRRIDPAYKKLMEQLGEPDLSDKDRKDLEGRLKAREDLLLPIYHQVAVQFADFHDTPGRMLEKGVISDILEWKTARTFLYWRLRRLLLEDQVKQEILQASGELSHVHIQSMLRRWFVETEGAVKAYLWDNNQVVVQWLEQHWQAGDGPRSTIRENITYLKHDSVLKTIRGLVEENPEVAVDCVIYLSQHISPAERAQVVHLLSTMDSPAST

For the compound `CNc1ccc2ccc(C(=O)N3CCC4(CC3)CC(=O)c3nn(C(C)(C)C)cc3C4)cc2n1`, the IC50 worked out at 1.3 nM at Acetyl-CoA carboxylase 2 and 2.2 nM on Acetyl-CoA carboxylase 1.

`CC(C)n1ncc2c1C(=O)CC1(CCN(C(=O)c3ccc4ccc(N)nc4c3)CC1)C2`: the values for the IC50 at Acetyl-CoA carboxylase 2 and at Acetyl-CoA carboxylase 1 were 10 nM and 12 nM, respectively.

For the compound `COc1ccc2ncc(C(=O)N3CCC4(CC3)CC(=O)c3c(cnn3C(C)C)C4)cc2c1`, the IC50 worked out at 2.1 nM at Acetyl-CoA carboxylase 2 and 5 nM at Acetyl-CoA carboxylase 1.

`CC(C)n1ncc2c1C(=O)CC1(CCN(C(=O)c3ccc4[nH]c(C(N)=O)cc4c3)CC1)C2`: the IC50 was found to be 2.9 nM on Acetyl-CoA carboxylase 2 and 11 nM at Acetyl-CoA carboxylase 1.
